Key:
Experiment in all cases: Test C pre/postemergence
Format in all cases: in vivo
[1] = tested on: woolly cupgrass (Eriochloa villosa); details: Preemergence
Source text: (§1) Seeds or nutlets of plant species selected from bermudagrass (Cynodon dactylon), Surinam grass (Brachiaria decumbens), cocklebur (Xanthium strumarium), corn (Zea mays), crabgrass (Digitaria sanguinalis), woolly cupgrass (Eriochloa villosa), giant foxtail (Setaria faberii), goosegrass (Eleusine indica), johnsongrass (Sorghum halepense), kochia (Kochia scoparia), lambsquarters (Chenopodium album), morningglory (Ipomoea coccinea), eastern black nightshade (Solanum ptycanthum), yellow nutsedge (Cyperus esculentus), pigweed (Amaranthus retroflexus), common ragweed (Ambrosia elatior), soybean (Glycine max), common (oilseed) sunflower (Helianthus annuus), and velvetleaf (Abutilon theophrasti) were planted and treated preemergence with test chemicals formulated in a non-phytotoxic solvent mixture which included a surfactant.
(§2) At the same time, plants selected from these crop and weed species and also winter barley (Hordeum vulgare), blackgrass (Alopecurus myosuroides), canarygrass (Phalaris minor), chickweed (Stellaria media), downy brome (Bromus tectorum), green foxtail (Setaria viridis), Italian ryegrass (Lolium multiflorum), wheat (Triticum aestivum), wild oat (Avena fatua) and windgrass (Apera spica-venti) were treated with postemergence applications of some of the test chemicals formulated in the same manner. Plants ranged in height from 2 to 18 cm (1- to 4-leaf stage) for postemergence treatments. Plant species in the flooded paddy test consisted of rice (Oryza sativa), umbrella sedge (Cyperus difformis), duck salad (Heteranthera limosa) and barnyardgrass (Echinochloa crus-galli) grown to the 2-leaf stage for testing. Treated plants and controls were maintained in a greenhouse for 12 to 14 days, after which time all species were compared to controls and visually evaluated. Plant response ratings, summarized in Table C, are based on a scale of 0 to 100 where 0 is no effect and 100 is complete control. A dash (-) response means no test result.

kochia (Kochia scoparia) = details: Bassia scoparia, pre-emergence, Preemergence, read-out: Plant response rating, Kochia
Source text: as §1, §2

[2] = tested on: yellow nutsedge (Cyperus esculentus); details: Preemergence
Source text: as §1, §2

[3] = tested on: common (oilseed) sunflower (Helianthus annuus); details: Preemergence
Source text: as §1, §2

[4] = tested on: johnsongrass (Sorghum halepense); details: Preemergence
Source text: as §1, §2

[5] = tested on: common ragweed (Ambrosia elatior); details: Preemergence
Source text: as §1, §2

[6] = tested on: Surinam grass (Brachiaria decumbens); details: Preemergence
Source text: as §1, §2

[7] = tested on: giant foxtail (Setaria faberii); details: Preemergence
Source text: as §1, §2

[8] = tested on: pigweed (Amaranthus retroflexus); details: Preemergence
Source text: as §1, §2

soybean (Glycine max) = details: Preemergence
Source text: as §1, §2

[9] = tested on: morningglory (Ipomoea coccinea); details: Preemergence
Source text: as §1, §2

[10] = 62 g ai/ha, scale 0 to 100, 0 no effect, 100 complete control

Nc1nc(C2CC2)nc(C=O)c1Br [Compound 26]
50%: pest or weed control at 500 g/ha (kochia (Kochia scoparia); 500 g ai/ha, scale 0 to 100)
90%: pest or weed control at 500 g/ha ([3]; Helianthus annuus, pre-emergence, 500 g ai/ha, scale 0 to 100, read-out: Plant response rating, Sunflower) | pest or weed control at 500 g/ha ([5]; Ambrosia artemisiifolia, pre-emergence, 500 g ai/ha, scale 0 to 100, read-out: Plant response rating, Ragweed) | pest or weed control at 500 g/ha ([9]; Ipomoea, pre-emergence, 500 g ai/ha, scale 0 to 100, read-out: Plant response rating, Morningglory)
0%: pest or weed control at 62 g/ha ([1]; Eriochloa villosa, pre-emergence, 62 g ai/ha, scale 0 to 100, 0 no effect, 100 complete control, read-out: Plant response rating, Cupgrass, Woolly) | pest or weed control at 125 g/ha ([1]; Eriochloa villosa, pre-emergence, 125 g ai/ha, scale 0 to 100, read-out: Plant response rating, Cupgrass, Woolly) | pest or weed control at 250 g/ha ([1]; Eriochloa villosa, pre-emergence, 250 g ai/ha, scale 0 to 100, read-out: Plant response rating, Cupgrass, Woolly) | pest or weed control at 500 g/ha ([1]; Eriochloa villosa, pre-emergence, 500 g ai/ha, scale 0 to 100, read-out: Plant response rating, Cupgrass, Woolly) | pest or weed control at 62 g/ha (kochia (Kochia scoparia); [10]) | pest or weed control at 62 g/ha ([2]; Cyperus, pre-emergence, 62 g ai/ha, scale 0 to 100, 0 no effect, 100 complete control, read-out: Plant response rating, Nutsedge, Yellow) | pest or weed control at 125 g/ha ([2]; Cyperus, pre-emergence, 125 g ai/ha, scale 0 to 100, read-out: Plant response rating, Nutsedge, Yellow) | pest or weed control at 250 g/ha ([2]; Cyperus, pre-emergence, 250 g ai/ha, scale 0 to 100, read-out: Plant response rating, Nutsedge, Yellow) | pest or weed control at 500 g/ha ([2]; Cyperus, pre-emergence, 500 g ai/ha, scale 0 to 100, read-out: Plant response rating, Nutsedge, Yellow) | pest or weed control at 62 g/ha ([3]; Helianthus annuus, pre-emergence, 62 g ai/ha, scale 0 to 100, 0 no effect, 100 complete control, read-out: Plant response rating, Sunflower) | pest or weed control at 62 g/ha ([4]; Sorghum halepense, pre-emergence, 62 g ai/ha, scale 0 to 100, 0 no effect, 100 complete control, read-out: Plant response rating, Johnsongrass) | pest or weed control at 250 g/ha ([4]; Sorghum halepense, pre-emergence, 250 g ai/ha, scale 0 to 100, read-out: Plant response rating, Johnsongrass) | pest or weed control at 62 g/ha ([5]; Ambrosia artemisiifolia, pre-emergence, 62 g ai/ha, scale 0 to 100, 0 no effect, 100 complete control, read-out: Plant response rating, Ragweed) | pest or weed control at 62 g/ha ([6]; Urochloa decumbens, pre-emergence, 62 g ai/ha, scale 0 to 100, 0 no effect, 100 complete control, read-out: Plant response rating, Surinam Grass) | pest or weed control at 125 g/ha ([6]; Urochloa decumbens, pre-emergence, 125 g ai/ha, scale 0 to 100, read-out: Plant response rating, Surinam Grass) | pest or weed control at 62 g/ha ([7]; Setaria faberi, pre-emergence, 62 g ai/ha, scale 0 to 100, 0 no effect, 100 complete control, read-out: Plant response rating, Foxtail, Giant) | pest or weed control at 125 g/ha ([7]; Setaria faberi, pre-emergence, 125 g ai/ha, scale 0 to 100, read-out: Plant response rating, Foxtail, Giant) | pest or weed control at 250 g/ha ([7]; Setaria faberi, pre-emergence, 250 g ai/ha, scale 0 to 100, read-out: Plant response rating, Foxtail, Giant) | plant injury at 62 g/ha (soybean (Glycine max); Glycine max, pre-emergence, 62 g ai/ha, scale 0 to 100, 0 no effect, 100 complete control, read-out: Plant response rating, Soybean) | pest or weed control at 62 g/ha ([9]; Ipomoea, pre-emergence, 62 g ai/ha, scale 0 to 100, 0 no effect, 100 complete control, read-out: Plant response rating, Morningglory)
5%: pest or weed control at 125 g/ha ([9]; Ipomoea, pre-emergence, 125 g ai/ha, scale 0 to 100, read-out: Plant response rating, Morningglory)
10%: pest or weed control at 125 g/ha ([5]; Ambrosia artemisiifolia, pre-emergence, 125 g ai/ha, scale 0 to 100, read-out: Plant response rating, Ragweed) | pest or weed control at 250 g/ha ([6]; Urochloa decumbens, pre-emergence, 250 g ai/ha, scale 0 to 100, read-out: Plant response rating, Surinam Grass) | pest or weed control at 500 g/ha ([6]; Urochloa decumbens, pre-emergence, 500 g ai/ha, scale 0 to 100, read-out: Plant response rating, Surinam Grass) | pest or weed control at 500 g/ha ([7]; Setaria faberi, pre-emergence, 500 g ai/ha, scale 0 to 100, read-out: Plant response rating, Foxtail, Giant) | plant injury at 125 g/ha (soybean (Glycine max); Glycine max, pre-emergence, 125 g ai/ha, scale 0 to 100, read-out: Plant response rating, Soybean) | plant injury at 250 g/ha (soybean (Glycine max); Glycine max, pre-emergence, 250 g ai/ha, scale 0 to 100, read-out: Plant response rating, Soybean)
85%: pest or weed control at 250 g/ha ([5]; Ambrosia artemisiifolia, pre-emergence, 250 g ai/ha, scale 0 to 100, read-out: Plant response rating, Ragweed) | pest or weed control at 250 g/ha ([9]; Ipomoea, pre-emergence, 250 g ai/ha, scale 0 to 100, read-out: Plant response rating, Morningglory)
70%: pest or weed control at 250 g/ha ([3]; Helianthus annuus, pre-emergence, 250 g ai/ha, scale 0 to 100, read-out: Plant response rating, Sunflower)
100%: pest or weed control at 500 g/ha ([4]; Sorghum halepense, pre-emergence, 500 g ai/ha, scale 0 to 100, read-out: Plant response rating, Johnsongrass) | pest or weed control at 125 g/ha ([8]; Amaranthus retroflexus, pre-emergence, 125 g ai/ha, scale 0 to 100, read-out: Plant response rating, Pigweed) | pest or weed control at 250 g/ha ([8]; Amaranthus retroflexus, pre-emergence, 250 g ai/ha, scale 0 to 100, read-out: Plant response rating, Pigweed) | pest or weed control at 500 g/ha ([8]; Amaranthus retroflexus, pre-emergence, 500 g ai/ha, scale 0 to 100, read-out: Plant response rating, Pigweed)
30%: pest or weed control at 62 g/ha ([8]; Amaranthus retroflexus, pre-emergence, 62 g ai/ha, scale 0 to 100, 0 no effect, 100 complete control, read-out: Plant response rating, Pigweed)
20%: pest or weed control at 125 g/ha ([3]; Helianthus annuus, pre-emergence, 125 g ai/ha, scale 0 to 100, read-out: Plant response rating, Sunflower) | plant injury at 500 g/ha (soybean (Glycine max); Glycine max, pre-emergence, 500 g ai/ha, scale 0 to 100, read-out: Plant response rating, Soybean)

CCOC(=O)c1nc(C2CC2)nc(N=CN(C)C)c1Br [Compound 40]
30: Plant response rating, Foxtail, Giant ([7]; 250 g ai/ha, scale 0 to 100)
10: Plant response rating, Surinam Grass ([6]; 250 g ai/ha, scale 0 to 100) | Plant response rating, Soybean (soybean (Glycine max); [10])
70: Plant response rating, Cupgrass, Woolly ([1]; 250 g ai/ha, scale 0 to 100)
0: Plant response rating, Nutsedge, Yellow [2, 10] | Plant response rating, Nutsedge, Yellow ([2]; 125 g ai/ha, scale 0 to 100) | Plant response rating, Nutsedge, Yellow ([2]; 250 g ai/ha, scale 0 to 100) | Plant response rating, Nutsedge, Yellow ([2]; 500 g ai/ha, scale 0 to 100) | Plant response rating, Johnsongrass [4, 10] | Plant response rating, Surinam Grass ([6]; 125 g ai/ha, scale 0 to 100) | Plant response rating, Foxtail, Giant [7, 10] | Plant response rating, Foxtail, Giant ([7]; 125 g ai/ha, scale 0 to 100)
95: Plant response rating, Cupgrass, Woolly ([1]; 500 g ai/ha, scale 0 to 100) | Plant response rating, Sunflower ([3]; 500 g ai/ha, scale 0 to 100) | Plant response rating, Johnsongrass ([4]; 500 g ai/ha, scale 0 to 100) | Plant response rating, Soybean (soybean (Glycine max); 500 g ai/ha, scale 0 to 100)
35: Plant response rating, Foxtail, Giant ([7]; 500 g ai/ha, scale 0 to 100)
90: Plant response rating, Sunflower ([3]; 125 g ai/ha, scale 0 to 100) | Plant response rating, Sunflower ([3]; 250 g ai/ha, scale 0 to 100) | Plant response rating, Ragweed [5, 10] | Plant response rating, Ragweed ([5]; 125 g ai/ha, scale 0 to 100) | Plant response rating, Surinam Grass ([6]; 500 g ai/ha, scale 0 to 100) | Plant response rating, Soybean (soybean (Glycine max); 250 g ai/ha, scale 0 to 100) | Plant response rating, Morningglory ([9]; 125 g ai/ha, scale 0 to 100) | Plant response rating, Morningglory ([9]; 250 g ai/ha, scale 0 to 100)
20: Plant response rating, Pigweed [8, 10]
5: Plant response rating, Cupgrass, Woolly [1, 10] | Plant response rating, Cupgrass, Woolly ([1]; 125 g ai/ha, scale 0 to 100) | Plant response rating, Sunflower [3, 10]
40: Plant response rating, Soybean (soybean (Glycine max); 125 g ai/ha, scale 0 to 100)
100: Plant response rating, Ragweed ([5]; 250 g ai/ha, scale 0 to 100) | Plant response rating, Ragweed ([5]; 500 g ai/ha, scale 0 to 100) | Plant response rating, Pigweed ([8]; 125 g ai/ha, scale 0 to 100) | Plant response rating, Pigweed ([8]; 250 g ai/ha, scale 0 to 100) | Plant response rating, Pigweed ([8]; 500 g ai/ha, scale 0 to 100) | Plant response rating, Morningglory ([9]; 500 g ai/ha, scale 0 to 100)
80: Plant response rating, Johnsongrass ([4]; 125 g ai/ha, scale 0 to 100) | Plant response rating, Johnsongrass ([4]; 250 g ai/ha, scale 0 to 100)

Source: US8802597B2, “Herbicidal pyrimidines” (E I du Pont de Nemours and Company, priority 2003, dated 2014)
